Experiment [1] relates to bna7Δ (YKB4649). In words: serial dilution spot assay on YPD agar plates. The experiment is classed as cell-based, S. cerevisiae. The note with it: 10 mM FA, 35 mM 4-HBA or 1 mM CA, 48 hr at 30° C. On the procedure:
(§1) In addition, deletion mutants were generated for genes involved in the tryptophan catabolic pathway and their growth was assayed on solid media containing 10 mM ferulic acid. In particular, wild type yeast (BY4741) along with deletion mutants aro8Δ (YKB4799), bna7Δ (YKB4649), bna2Δ (YKB4798), bna6Δ (YKB4844), bna5Δ (YKB4845), bna4Δ (YKB4846) and bna1Δ (YKB4729) were grown to mid log phase ([…] 0.5-0.6) in YPD medium prior to being diluted to an OD600 of 0.1. Four 10-fold serial dilutions were spotted onto YPD agar plates either containing 10 mM ferulic acid or no ferulic acid. Plates were incubated for 48 hr at 30° C. Images of the plates were taken with the ChemiDoc XRS Molecular Imaging system (Biorad) and images are representative of three biological replicates.
Experiments were also conducted to determine if deletion of BNA7 could provide protection to 4-hydroxybenzoic acid or coniferyl aldehyde (CA). Wild type (BY4741) and bna7A (YKB4649) strains were grown to mid log phase in YPD medium prior to being diluted into fresh medium to an OD600 of 0.1. Four 10-fold serial dilutions were spotted onto YPD agar plates containing either no compound (Untreated), 10 mM ferulic acid (FA), 35 mM 4-hydroxybenzoic acid (4-HBA) or 1 mM coniferyl aldehyde (CA). Plates were incubated for 48 hr at 30° C. and images are representative of three biological replicates.

In experiment [2] the test system is wild-type yeast (BY4741). The experiment is described as follows: ROS measurement by H2DCFDA fluorescence microscopy. Format: cell-based, S. cerevisiae. The note with it: 2 mM CA, 1 hour at 30° C.; for subcellular distribution of induced ROS: 10 mM FA or 50 mM 4-HBA. On the procedure: Measurement of ROS was performed as previously described (Kennedy et al., 2016, Sci Rep. 6, 19332). Briefly cells were incubated with 10 μM 2′,7′-dichlorodihydrofluorescein diacetate (H2DCFDA; Invitrogen cat. #D399) for 15 min in the dark. […] An aliquot of 5 μL was spotted onto glass slides and covered with a cover slip prior to imaging. All images were acquired using a Leica DMI 6000 florescent microscope (Leica Microsystems GmbH, Wetzler Germany), equipped with a Sutter DG4 light source (Sutter Instruments, California, USA), Ludl emission filter wheel with Chroma band pass emission filters (Ludl Electronic Products Ltd., NY, USA) and Hamamatsu Orca AG camera (Hamamatsu Photonics, Herrsching am Ammersee, Germany). Images were acquired at 0.2 μm steps across 6 μm using a 63× oil-immersion objective with a 1.4 numerical aperture. Analysis of H2DCFDA fluorescence was performed using Velocity Software V4 (Perkin Elmer). Image J software was used to quantify the H2DCFDA fluorescence signal in cells as described by Schneider et al (Schneider et al., 2012, Nature Methods, 9, 671-675) with a slight modification. Briefly, background fluorescence was subtracted from the images and the total fluorescence of all the cells in the image was measured and divided by the number of cells in the image. The images contained a minimum of 100 cells. The ratio of fluorescence per cell of treated cultures was divided by that of untreated cultures to eliminate background endogenous ROS production.

Experiment [3] concerns Zwf1-GFP. The experiment is described as follows: Zwf1-GFP fluorescence microscopy. The experiment is classed as cell-based, S. cerevisiae. The note with it: 2 mM CA for 120 min at 30° C. (ρ=9.69E-5); ferulic acid 10 mM. On the procedure: For the microscopy studies, wild type cells expressing endogenously tagged Zwf1-GFP (YKB4825) were grown to mid log in YPD, prior to being washed and resuspended in YPD medium (Untreated) or YPD medium containing 2 mM coniferyl aldehyde (CA) for 120 min at 30° C. Images (FIG. 8A) are representative of three independent experiments where a minimum of 100 cells each were imaged. Scale bar represents 10 μm.

Experiment [4] deals with Saccharomyces cerevisiae ethanol red. The note with it: commercial Saccharomyces cerevisiae ethanol red; Adeboye et al., 2014; cited from earlier work.
Experiment [5] relates to bna7Δ (YKB4649). The experiment is described as follows: automated growth curve analysis in YPD liquid medium. Format: cell-based, S. cerevisiae. The note with it: 10 mM ferulic acid, 30° C., 72 hr. On the procedure:
The agar-based chemogenomic screen was confirmed by measuring the growth rate of the identified mutants in liquid YPD medium supplemented with the phenolic compounds. Briefly, overnight cultures of the mutant strains were inoculated into fresh YPD medium and strains were incubated at 30° C. until they reached the mid log phase ([…] 0.5-0.6), prior to being diluted to a final OD600 of 0.1 in a BioScreen CTM Honeycomb microplate. The growth assays were performed for each mutant in triplicate in YPD alone (control) or YPD medium supplemented with ferulic acid, 4-hydroxybenzoic acid or coniferyl aldehyde. Using a BioScreen CTM plate reader, the cultures were incubated at 30° C. for 72 hours and OD600 readings were taken every 15 min to plot growth curves. Data from the BioScreen CTM were analyzed with the PRECOG software (Fernandez-Ricaud et al., […], Nucleic acids research. 41, W591-6) to obtain the doubling time of all the strains. A PRECOG score for each of the strains tested was calculated as the ratio of the doubling time in the presence of the phenolic to the doubling time in the absence of these phenolic compounds. Using a cut-off PRECOG score of >2 and <0.4 strains were identified that were sensitive or tolerant, respectively, to the phenolic compounds. […]

Experiment [6] relates to bna7Δ cells. In words: ROS measurement by H2DCFDA fluorescence microscopy. The experiment is classed as cell-based, S. cerevisiae. The note with it: 10 mM ferulic acid for 2 hr; not statistically significant (ρ=0.756). On the procedure: For all microscopy experiments overnight cultures of wild-type yeast grown at 30° C. were re-suspended at an OD600 of 0.1 in YPD medium and allowed to reach mid-log phase prior to imaging. Measurement of ROS was performed as previously described (Kennedy et al., 2016, Sci Rep. 6, 19332). Briefly cells were incubated with 10 μM 2′,7′-dichlorodihydrofluorescein diacetate (H2DCFDA; Invitrogen cat. #D399) for 15 min in the dark. Cells were washed in sterile PBS to remove traces of the dye after which they were re-suspended in YPD medium alone, or YPD supplemented with either 2 mM coniferyl aldehyde, […]
Analysis of H2DCFDA fluorescence was performed using Velocity Software V4 (Perkin Elmer). Image J software was used to quantify the H2DCFDA fluorescence signal in cells as described by Schneider et al (Schneider et al., 2012, Nature Methods, 9, 671-675) with a slight modification. Briefly, background fluorescence was subtracted from the images and the total fluorescence of all the cells in the image was measured and divided by the number of cells in the image. […] The ratio of fluorescence per cell of treated cultures was divided by that of untreated cultures to eliminate background endogenous ROS production. […]

For experiment [7], the system named is mutants aro8Δ, bna2Δ, bna6Δ, bna5Δ, bna4Δ and bna1Δ. In words: serial dilution spot assay on YPD agar plates. Format: cell-based, S. cerevisiae. The note with it: 10 mM ferulic acid, 48 hr at 30° C. On the procedure: as §1

Results on three compounds are retold here after patent US11555210B2, “Microbe having increased tolerance to phenolic fermentation inhibitors” (University of Ottawa, priority 2018, dated 2023).

Consider `O=C(O)c1ccc(O)cc1` [4-hydroxybenzoic acid], for which the “resistance of bna7Δ / protection by deletion of BNA7” value in experiment [1] is given as “does not provide protection”. Besides, the “subcellular distribution of induced ROS” value in experiment [2] is “distributed throughout the cell”. Further, the Zwf1-GFP fluorescence signal/cell result in experiment [3] is “no increase”. The “concentration at which the compound kills the yeast” value in experiment [4] is recorded as 11 mM.

Regarding `OO` [hydrogen peroxide], the “ROS formation (H2DCFDA fluorescence)” value in experiment [2] (10 mM FA, 50 mM 4-HBA or hydrogen peroxide) is given as “induced the formation of green fluorescence signal throughout the cell”.

Consider `COc1cc(C=CC(=O)O)ccc1O` [ferulic acid, 4-hydroxy-3-methoxycinnamic acid], for which the “growth (OD600) of bna7Δ relative to wild-type” value in experiment [5] is given as “increased growth relative to the wild-type strain”. In experiment [1], the “resistance of bna7Δ / protection by deletion of BNA7” value is listed as “resistant”. In experiment [6], the “ROS signal in bna7Δ compared to wild-type” value is “slight reduction of ROS”. For the same compound, the “subcellular distribution of induced ROS” value in experiment [2] was “distributed throughout the cell”. The “effect of gene deletion on ferulic acid tolerance” value in experiment [7] is reported as “no effect”. For the same compound, the Zwf1-GFP fluorescence signal/cell result in experiment [3] was “no increase”. Further, in experiment [4], the “concentration at which the compound kills the yeast” value is 5 mM.
